Test results taken from patent US9612237B2, “Ritalinic acid immunoassay” (Randox Laboratories Limited, priority 2013, dated 2017).
Structures can show the parent of a compound that is named as a salt.

system: antibodies of the invention (antisera generated in response to immunogen of Example 5); experiment: Competitive chemiluminescent biochip immunoassay, antiserum raised against immunogen of Example 5, HRP conjugate of Example 6; format: binding, sheep; details: value is the concentration at which no cross-reactivity was exhibited

| Molecule | No measurable CR at given concentration |
| --- | --- |
| CCOC(=O)C(c1ccccc1)C1CCCCN1 (centres unmarked) [Ethylphenidate] | 100 µg/mL |
| CNCCC[C@@]1(c2ccc(F)cc2)OCc2cc(C#N)ccc21 [N-desmethylescilatopram] | 10 µg/mL |
| Dextromorphan | 10 µg/mL |
| CNCCC=C1c2ccccc2CCc2ccccc21 [Nortriptylene] | 10 µg/mL |
| CNCCC(Oc1ccc(C(F)(F)F)cc1)c1ccccc1 (centres unmarked) [fluoxetine] | 100 µg/mL |
| COc1cccc(C2(O)CCCCC2CN(C)C)c1 (centres unmarked) [Tramadol] | 10 µg/mL |
| N[C@H]1CC[C@@H](c2ccc(Cl)c(Cl)c2)c2ccccc21 [Norsertraline] | 10 µg/mL |

system: antisera generated in response to immunogen of Example 11; experiment: Competitive chemiluminescent biochip immunoassay, antisera raised against immunogen of Example 11, conjugate of Example 12; format: binding, sheep; details: not given

| Molecule | Concentration exhibiting no cross-reactivity |
| --- | --- |
| CN1C(=O)CN=C(c2ccccc2)c2cc(Cl)ccc21 [diazepam] | 3 µg/mL |
| CNCCC=C1c2ccccc2CCc2ccccc21 [nortriptyline HCl] | 10 µg/mL |
| COc1ccc2cc([C@H](C)C(=O)O)ccc2c1 [naproxen] | 250 µg/mL |
| CN(C(=O)O[C@@H]1O[C@H](C(=O)O)[C@@H](O)[C@H](O)[C@H]1O)[C@H]1CC[C@@H](c2ccc(Cl)c(Cl)c2)c2ccccc21 [sertraline carbamoyl glocuronide] | 3 µg/mL |
| O=c1n(CCC[N+]2([O-])CCN(c3cccc(Cl)c3)CC2)nc2ccccn12 [trazodone N-oxide] | 0.4 µg/mL |
| Oc1cccc(N2CCNCC2)c1 [1-(3-hydroxyphenyl)-piperazine] | 0.4 µg/mL |

same assay, conditions: biochip; relative to methylphenidate = 100

| Molecule | % cross reactivity |
| --- | --- |
| CN[C@@H](C)[C@@H](O)c1ccccc1.Cl [(+)-pseudoephedrine HCl] | 0.2% |
| c1ccc(C2(N3CCCCC3)CCCCC2)cc1 [PCP] | <0.1% |
| CCN(CC)CCN1C(=O)CN=C(c2ccccc2F)c2cc(Cl)ccc21 [flurazepam] | <1% |

same assay, conditions: value is the concentration at which no cross-reactivity was exhibited

| Molecule | Concentration exhibiting no cross-reactivity |
| --- | --- |
| CCOc1ccc(NC(C)=O)cc1 [phenacetin] | 250 µg/mL |
| CN1C(=O)C(O)N=C(c2ccccc2)c2cc(Cl)ccc21 (centres unmarked) [temazepam] | 3 µg/mL |
| CCc1nn(CCCN2CCN(c3cccc(Cl)c3)CC2)c(=O)n1CC [etoperidone HCl] | 0.4 µg/mL |
| Cc1ccc(-c2nc3ccc(C)cn3c2CC(=O)N(C)C)cc1 [zolpidem tartrate] | 10 µg/mL |
| CN1C(=O)CN=C(c2ccccc2F)c2cc(N)ccc21 [7-NH flunitrazepam] | 10 µg/mL |
| COc1ccc2c(c1)[C@@]13CCCC[C@H]1[C@@H](C2)NCC3.Cl [3-methoxymorphinan HCl] | 0.25 µg/mL |
| COC(=O)c1ccccc1O [methyl salicylate] | 250 µg/mL |
| dextrorphan tartrate salt | 0.25 µg/mL |
| CC(Cc1ccc(C(C)C(=O)O)cc1)C(=O)O (centres unmarked) [ibuprofen carboxylic acid] | 250 µg/mL |
| CNC(C)Cc1ccc2c(c1)OCO2 (centres unmarked) [MDMA] | 5 µg/mL |
| CCN(C(C)=O)c1cccc(-c2ccnc3c(C#N)cnn23)c1 [zaleplon] | 10 µg/mL |
| CCC(C)C(C)(COC(N)=O)COC(N)=O (centres unmarked) [mebutamate] | 0.35 µg/mL |
| CCCC(C)(COC(N)=O)COC(N)=O [meprobamate] | 10 µg/mL |
| CN1CCN(C(=O)OC2c3nccnc3C(=O)N2c2ccc(Cl)cn2)CC1 (centres unmarked) [zopiclone] | 10 µg/mL |
| CC(C)Cc1ccc([C@@H](C)C(=O)O)cc1 [(R)-(−)-ibuprofen] | 250 µg/mL |
| Br.CNCCC[C@@]1(c2ccc(F)cc2)OCc2cc(C#N)ccc21 [N-desmethyl escitalopram hydrobromide] | 10 µg/mL |
| O=C(O)CNC(=O)c1cc(O)ccc1O [gentisuric acid] | 250 µg/mL |
| Cc1ccccc1-n1c(C)nc2ccccc2c1=O [methaqualone] | 10 µg/mL |
| CCC(=O)OC(Cc1ccccc1)(c1ccccc1)C(C)CNC.O=C(O)/C=C\C(=O)O (single isomer, unassigned; (+)) [(+)-norpropoxyphene maleate] | 10 µg/mL |
| CC(C)Cc1ccc(C(C)C(=O)O)cc1 (stereo not drawn) [S-(+)-ibuprofen] | 250 µg/mL |
| CCOC(=O)C1(c2ccccc2)CCNCC1 [normeperidine] | 1 µg/mL |
| Oc1ccc(C(F)(F)F)cc1 [p-trifluoromethylphenol] | 2.5 µg/mL |

| Molecule | Concentration exhibiting no cross-reactivity |
| --- | --- |
| O=C(O)c1cc(-c2ccc(F)cc2F)ccc1O [diflusinal] | 250 µg/mL |
| COc1ccc2c3c1O[C@H]1[C@@H](O)C=C[C@H]4[C@@H](C2)N(C)CC[C@@]341 [codeine] | 0.25 µg/mL |
| CNCCC(Oc1ccc(C(F)(F)F)cc1)c1ccccc1 (centres unmarked) [fluoxetine HCl] | 10 µg/mL |
| COc1cccc(C2(O)CCCCC2CN(C)C)c1 (centres unmarked) [tramadol HCl] | 10 µg/mL |
| CCC(=O)C(CC(C)N(C)C)(c1ccccc1)c1ccccc1 (centres unmarked) [methadone] | 10 µg/mL |
| CN[C@H]1CC[C@@H](c2ccc(Cl)c(Cl)c2)c2ccccc21 [sertaline] | 7.5 µg/mL |
| O=C(O)C(Cl)(Cl)Cl [trichloroacetic acid] | 100 µg/mL |
| O=C(O)c1cc(O)ccc1O [gentisic acid] | 250 µg/mL |
| CC(C(=O)O)c1cccc(C(=O)c2ccccc2)c1 (centres unmarked) [ketoprofen] | 250 µg/mL |
| CN1C(=O)CC[C@H]1c1cccnc1 [(−)-cotinine] | 22 µg/mL |
| CC(C(=O)O)c1ccc(CC(C)(C)O)cc1 (racemic) [rac-2-hydroxy ibuprofen] | 125 µg/mL |
| COc1ccc(C(CN(C)C)C2(O)CCCCC2)cc1 (centres unmarked) [venlafaxine HCl] | 0.18 µg/mL |
| O=C1CN=C(c2ccccc2)c2cc(Cl)ccc2N1 [nordiazepam] | 3 µg/mL |
| COc1ccc(NC(C)=O)cc1 [methacetin] | 250 µg/mL |
| CC(=O)Oc1ccccc1C(=O)O [aspirin] | 250 µg/mL |
| NCCc1ccccc1.O=S(=O)(O)O [phenethylamine sulfate] | 250 µg/mL |
| Nc1ccc(C(=O)O)c(O)c1 [4-aminosalicylic acid] | 250 µg/mL |
| CNCC1CCCCC1(O)c1cccc(O)c1 (racemic) [rac N,O-didesmethyl tramadol] | 0.18 µg/mL |
| COc1ccc2c3c1O[C@H]1C(=O)CC[C@@]4(O)[C@@H](C2)N(C)CC[C@]314 [oxycodone] | 10 µg/mL |
| O=C(O)[C@H]1O[C@@H](OCC(Cl)(Cl)Cl)[C@H](O)[C@@H](O)[C@@H]1O [urochloralic acid] | 100 µg/mL |
| Oc1ccc2c(c1)[C@@]13CCCC[C@H]1[C@@H](C2)NCC3 [N-desmethyl dextorphan] | 0.25 µg/mL |
